Test results: ChEMBL document CHEMBL1201862, “PubChem BioAssay data set” (2004)
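Step 1: Grow cells in 96-well plates. Step 2: Expose to compound for 48 hours at 5 concentrations. Step 3: Interpolate endpoints linearly; if unreached, use highest concentration. The concentration for 50% growth inhibition is given as GI50.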 Calls of active or inactive are those of the source. Cut-off read from the data, not from the text of the source: active = GI50 up to about 1.1 µM and inactive = higher.

Columns and labels:
Test in all cases: NCI anticancer screen, dose series, 48 h
[1] = system: HL-60
[2] = system: RXF 393
[3] = system: SF-539
[4] = system: MCF7
[5] = system: NCI-H460
[6] = system: NCI-H226
[7] = system: A549
[8] = system: T47D
[9] = system: A498
[10] = system: NCI/ADR-RES
[11] = system: OVCAR-8
[12] = system: OVCAR-5
[13] = system: Hs-578T
[14] = system: U-251
[15] = system: MOLT-4
[16] = system: SN12C
[17] = system: MDA-MB-435
[18] = system: IGROV-1
[19] = system: SW-620
[20] = system: SK-MEL-5

SMILES	GI50 [1]	GI50 [2]	GI50 [3]	GI50 [4]	GI50 [5]	GI50 [6]	GI50 [7]	GI50 [8]	GI50 [9]	GI50 [10]	GI50 [11]	GI50 [12]	GI50 [13]	GI50 [14]	GI50 [15]	GI50 [16]	GI50 [17]	GI50 [18]	GI50 [19]	GI50 [20]
O=c1[nH]nc(Cc2ccccc2)[nH]1	> 100 µM (inactive)	> 100 µM (inactive)	> 100 µM (inactive)	> 100 µM (inactive)	> 100 µM (inactive)	> 100 µM (inactive)	> 100 µM (inactive)	> 100 µM (inactive)	> 100 µM (inactive)	> 100 µM (inactive)	> 100 µM (inactive)	> 100 µM (inactive)	> 100 µM (inactive)	> 100 µM (inactive)	> 100 µM (inactive)	> 100 µM (inactive)	> 100 µM (inactive)	> 100 µM (inactive)	> 100 µM (inactive)	> 100 µM (inactive)
NCCCN1CCN(CC(=O)O)CCN(CCCN)CCN(CC(=O)O)CC1	15.3 µM (inactive)	> 47.9 µM (inactive)	68.1 µM (inactive)	44.1 µM (inactive)	6.75 µM (inactive)	> 100 µM (inactive)	5.52 µM (inactive)	> 100 µM (inactive)	> 100 µM (inactive)	> 100 µM (inactive)	> 86.1 µM (inactive)	> 38.9 µM (inactive)	> 100 µM (inactive)	> 100 µM (inactive)	7.14 µM (inactive)	> 100 µM (inactive)	> 100 µM (inactive)	43.9 µM (inactive)	9.91 µM (inactive)	4.5 µM (inactive)
Cc1ccc(S(=O)(=O)N2CCN(S(=O)(=O)c3ccc(C)cc3)CCN(S(=O)(=O)c3ccc(C)cc3)Cc3cc(C#N)c(C#N)cc3CN(S(=O)(=O)c3ccc(C)cc3)CC2)cc1	> 100 µM (inactive)	> 100 µM (inactive)	> 100 µM (inactive)	> 100 µM (inactive)	> 100 µM (inactive)	56.2 µM (inactive)	> 100 µM (inactive)	> 100 µM (inactive)	20.7 µM (inactive)	> 100 µM (inactive)	> 100 µM (inactive)	> 100 µM (inactive)	> 100 µM (inactive)	> 100 µM (inactive)	> 100 µM (inactive)	> 100 µM (inactive)	> 100 µM (inactive)	> 100 µM (inactive)	> 100 µM (inactive)	> 100 µM (inactive)
Cc1c(-c2ccccc2)c(C#N)c2nnn(-c3ccccc3)c(=O)n12	84.1 µM (inactive)	81.7 µM (inactive)	> 100 µM (inactive)	80.9 µM (inactive)	64.6 µM (inactive)	> 100 µM (inactive)	97.9 µM (inactive)	33 µM (inactive)	65.8 µM (inactive)	> 100 µM (inactive)	> 100 µM (inactive)	> 100 µM (inactive)	> 100 µM (inactive)	48.8 µM (inactive)		> 100 µM (inactive)	> 100 µM (inactive)	> 100 µM (inactive)	> 100 µM (inactive)	30.9 µM (inactive)
CCOC(=O)CCC(C(=O)OCC)n1nnc2ccc(Nc3c(C)[n+]([O-])c4ccc(Cl)cc4[n+]3[O-])cc21 (configuration not stated)	39.2 µM (inactive)	26.9 µM (inactive)	38.5 µM (inactive)	19.9 µM (inactive)	49.7 µM (inactive)	22.4 µM (inactive)	57.3 µM (inactive)	34 µM (inactive)	> 100 µM (inactive)	28.3 µM (inactive)	39.2 µM (inactive)	54.1 µM (inactive)	> 100 µM (inactive)	46.3 µM (inactive)	34.5 µM (inactive)	46.2 µM (inactive)	51.9 µM (inactive)	40.5 µM (inactive)	54 µM (inactive)	39.4 µM (inactive)
CC(C)C1OCC(CO)CO1 (configuration not stated)	> 100 µM (inactive)	> 100 µM (inactive)	> 100 µM (inactive)	> 100 µM (inactive)	> 100 µM (inactive)	> 100 µM (inactive)	> 100 µM (inactive)	> 100 µM (inactive)	> 100 µM (inactive)	> 100 µM (inactive)	> 100 µM (inactive)	> 100 µM (inactive)	> 100 µM (inactive)	> 100 µM (inactive)	> 100 µM (inactive)	> 100 µM (inactive)	> 100 µM (inactive)		> 100 µM (inactive)	> 100 µM (inactive)
COC1=CC(=O)C(C2(OC(C)C)OC(=O)C(Cl)=C2Cl)=CC1=O (configuration not stated)	< 0.01 µM (active)	> 100 µM (inactive)	> 100 µM (inactive)	> 100 µM (inactive)	> 100 µM (inactive)	> 100 µM (inactive)	> 100 µM (inactive)	> 100 µM (inactive)	> 100 µM (inactive)	> 100 µM (inactive)	24.9 µM (inactive)	> 100 µM (inactive)	> 100 µM (inactive)			> 100 µM (inactive)	41.3 µM (inactive)		> 100 µM (inactive)	> 100 µM (inactive)
Cc1cn(CCC(N)C(=O)O)c(=O)[nH]c1=O (configuration not stated)	> 100 µM (inactive)	> 100 µM (inactive)	> 100 µM (inactive)	> 100 µM (inactive)	> 100 µM (inactive)	> 100 µM (inactive)	> 100 µM (inactive)	> 100 µM (inactive)	> 100 µM (inactive)	> 100 µM (inactive)	> 100 µM (inactive)	> 100 µM (inactive)	> 100 µM (inactive)	> 100 µM (inactive)	> 100 µM (inactive)	> 100 µM (inactive)	> 100 µM (inactive)	> 100 µM (inactive)	> 100 µM (inactive)	> 100 µM (inactive)
Cc1ccccc1C1CC(=O)CC(c2ccccc2C)C12C(=O)NC(=O)NC2=O (configuration not stated)	55 µM (inactive)	> 100 µM (inactive)	> 32.4 µM (inactive)	> 73.6 µM (inactive)	> 88.5 µM (inactive)	> 100 µM (inactive)	> 100 µM (inactive)	> 100 µM (inactive)	> 100 µM (inactive)	> 100 µM (inactive)	> 100 µM (inactive)	> 100 µM (inactive)	> 100 µM (inactive)	> 100 µM (inactive)	> 78.5 µM (inactive)	1.98 µM (inactive)	> 77.8 µM (inactive)	62.5 µM (inactive)	> 100 µM (inactive)	> 100 µM (inactive)
CC(C)=CCC[C@@H](C)C1=C(N)C(=O)C(C)=C(O)C1=O	13 µM (inactive)	> 75 µM (inactive)	41.7 µM (inactive)	61.5 µM (inactive)	33.7 µM (inactive)	27.5 µM (inactive)	32.6 µM (inactive)	42.9 µM (inactive)	29.9 µM (inactive)	8.28 µM (inactive)	22.4 µM (inactive)	53.1 µM (inactive)	34.9 µM (inactive)	31.8 µM (inactive)	19.5 µM (inactive)	45.8 µM (inactive)	44.8 µM (inactive)	29.9 µM (inactive)	41.3 µM (inactive)	24.8 µM (inactive)
CN(C)Cc1cc(/N=N/c2ccccc2)ccc1O	41.5 µM (inactive)	3.94 µM (inactive)	67.3 µM (inactive)	89.1 µM (inactive)	40.5 µM (inactive)	95.9 µM (inactive)	92.9 µM (inactive)	44.1 µM (inactive)	25.1 µM (inactive)	24.8 µM (inactive)	76.4 µM (inactive)	42.7 µM (inactive)	33 µM (inactive)	> 100 µM (inactive)	33.9 µM (inactive)	> 100 µM (inactive)	34.8 µM (inactive)	32.5 µM (inactive)	57.7 µM (inactive)	15.1 µM (inactive)
CC1(COS(=O)(=O)OCC2(C)COS(=O)(=O)OC2)COS(=O)(=O)OC1	> 35.1 µM (inactive)	> 64.7 µM (inactive)	> 100 µM (inactive)	> 22.3 µM (inactive)	> 42.3 µM (inactive)	> 41.5 µM (inactive)	> 28.8 µM (inactive)	> 20.9 µM (inactive)	> 45.8 µM (inactive)	> 48.3 µM (inactive)	> 48.3 µM (inactive)	> 100 µM (inactive)	> 100 µM (inactive)	> 38.1 µM (inactive)			> 41.2 µM (inactive)	39.2 µM (inactive)	> 55.2 µM (inactive)	> 69.2 µM (inactive)
C[n+]1c(/C=C/c2ccc(O)c3ncccc23)[se]c2ccccc21	2.55 µM (inactive)	8.67 µM (inactive)	2.86 µM (inactive)	1.58 µM (inactive)	2.51 µM (inactive)	11.5 µM (inactive)	7.06 µM (inactive)	3.2 µM (inactive)	11.2 µM (inactive)	3.48 µM (inactive)	2.87 µM (inactive)	9.86 µM (inactive)	15.7 µM (inactive)	2.88 µM (inactive)	1.94 µM (inactive)	2.99 µM (inactive)	6.34 µM (inactive)	3 µM (inactive)	3.98 µM (inactive)	7.76 µM (inactive)
C=C(CC[C@@H](C(=O)O)[C@H]1[C@H](O)C[C@@]2(C)C3=CC[C@@H](C(=C)C)[C@](C)(CCC(=O)O)C3=CC[C@]12C)C(C)C [PORICOIC ACID A]	15.9 µM (inactive)	17.2 µM (inactive)	20 µM (inactive)	17.1 µM (inactive)	18.2 µM (inactive)	19.7 µM (inactive)	18.7 µM (inactive)	23.8 µM (inactive)	23.6 µM (inactive)	19.7 µM (inactive)	19.5 µM (inactive)	16.5 µM (inactive)	22.6 µM (inactive)	18 µM (inactive)	22.1 µM (inactive)	16.7 µM (inactive)	18.8 µM (inactive)		22.2 µM (inactive)	20.4 µM (inactive)
